Laboratory results as given in patent US20150315188A1, “COMPOUNDS AND METHODS FOR TREATMENT OF HYPERTENSION” (MEDIVATION TECHNOLOGIES, INC., priority 2012, published 2015).

Experiments:
Set-up in all cases: purchased Milipore (Millipore)
[1] = biological target: T1, Human adrenergic α2B receptor (Homo sapiens, UniProt P18089); test: Radioligand binding, adrenergic α2B (Protocol Group B); details: Protocol Group B; for Percentage inhibition of ligand binding, Adrenergic α2B (10 nM) / inhibition at 0.01 µM: 10 nM compound; for inhibition at 0.03 µM / Percentage inhibition of ligand binding, Adrenergic α2B (30 nM): 30 nM compound; for inhibition at 0.03 µM: read-out: Percentage inhibition of ligand binding, Adrenergic α2B (30 nM); for Percentage inhibition of ligand binding, Adrenergic α2B (30 nM): 0.03 µM; for Percentage inhibition of ligand binding, Adrenergic α2B (0.1 μM) / inhibition at 0.1 µM: 0.1 μM compound; for inhibition at 0.1 µM: read-out: Percentage inhibition of ligand binding, Adrenergic α2B (0.1 μM); for inhibition at 0.01 µM: read-out: Percentage inhibition of ligand binding, Adrenergic α2B (10 nM)
T1 sequence (P18089 1-450): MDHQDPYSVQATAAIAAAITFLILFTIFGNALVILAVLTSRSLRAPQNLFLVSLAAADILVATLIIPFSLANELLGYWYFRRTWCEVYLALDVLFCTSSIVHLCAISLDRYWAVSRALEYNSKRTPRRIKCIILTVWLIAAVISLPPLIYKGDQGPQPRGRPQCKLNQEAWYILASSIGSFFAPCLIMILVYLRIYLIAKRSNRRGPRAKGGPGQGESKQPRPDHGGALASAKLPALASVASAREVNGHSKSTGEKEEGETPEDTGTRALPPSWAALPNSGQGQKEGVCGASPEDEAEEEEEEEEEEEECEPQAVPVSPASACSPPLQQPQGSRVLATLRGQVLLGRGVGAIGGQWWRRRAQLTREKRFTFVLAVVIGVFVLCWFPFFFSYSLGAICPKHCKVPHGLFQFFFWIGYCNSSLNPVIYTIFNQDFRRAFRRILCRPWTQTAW
Procedure, shortened: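 Recombinant human α2B receptor membranes incubated with compounds in 50 mM Tris-HCl pH 7.4, 5 mM MgCl2, 1 mM CaCl2, 0.2% BSA, 1% DMSO vehicle. Non-specific binding defined with 10 μM rauwolscine. Values are percent inhibition of specific binding or estimated Ki.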

[2] = biological target: T2, Human adrenergic α1B receptor (Homo sapiens, UniProt P35368); test: Radioligand binding, adrenergic α1B (Protocol Group B); details: Protocol Group B; for inhibition at 0.1 µM / Percentage inhibition of ligand binding, Adrenergic α1B (0.1 μM): 0.1 μM compound; for inhibition at 0.1 µM: read-out: Percentage inhibition of ligand binding, Adrenergic α1B (0.1 μM); for Percentage inhibition of ligand binding, Adrenergic α1B (0.3 μM) / inhibition at 0.3 µM: 0.3 μM compound; for inhibition at 0.3 µM: read-out: Percentage inhibition of ligand binding, Adrenergic α1B (0.3 μM)
T2 sequence (P35368 1-520): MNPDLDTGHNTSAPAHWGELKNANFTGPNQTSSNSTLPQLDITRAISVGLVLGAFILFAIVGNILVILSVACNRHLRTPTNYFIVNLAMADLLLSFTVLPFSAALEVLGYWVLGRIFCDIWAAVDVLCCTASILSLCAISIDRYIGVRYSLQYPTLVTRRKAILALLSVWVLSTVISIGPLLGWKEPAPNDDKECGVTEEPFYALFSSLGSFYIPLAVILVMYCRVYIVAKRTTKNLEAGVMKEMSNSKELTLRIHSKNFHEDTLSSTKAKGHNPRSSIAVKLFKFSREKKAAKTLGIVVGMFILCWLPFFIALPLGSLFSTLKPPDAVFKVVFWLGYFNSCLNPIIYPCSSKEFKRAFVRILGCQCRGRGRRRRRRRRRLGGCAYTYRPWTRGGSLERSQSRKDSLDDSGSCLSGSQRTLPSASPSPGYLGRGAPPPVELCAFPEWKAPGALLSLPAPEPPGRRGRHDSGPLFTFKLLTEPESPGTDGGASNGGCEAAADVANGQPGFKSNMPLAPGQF
Procedure, shortened: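 Recombinant human α1B membranes incubated with test compound and 0.3 nM [3H]prazosin, 60 min at 25 °C, in 50 mM Tris-HCl pH 7.4, 10 mM MgCl2, 1 mM EDTA; nonspecific binding with 10 μM prazosin. Filter-bound radioactivity counted; values are % inhibition of specific binding or estimated Ki.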

[3] = biological target: T3, Human adrenergic α2A receptor (Homo sapiens, UniProt P08913); test: Radioligand binding, adrenergic α2A (Protocol Group B); details: Protocol Group B; for Percentage inhibition of ligand binding, Adrenergic α2A (0.1 μM) / inhibition at 0.1 µM: 0.1 μM compound; for inhibition at 0.3 µM / Percentage inhibition of ligand binding, Adrenergic α2A (0.3 μM): 0.3 μM compound; for inhibition at 0.3 µM: read-out: Percentage inhibition of ligand binding, Adrenergic α2A (0.3 μM); for inhibition at 0.1 µM: read-out: Percentage inhibition of ligand binding, Adrenergic α2A (0.1 μM)
T3 sequence (P08913 1-465): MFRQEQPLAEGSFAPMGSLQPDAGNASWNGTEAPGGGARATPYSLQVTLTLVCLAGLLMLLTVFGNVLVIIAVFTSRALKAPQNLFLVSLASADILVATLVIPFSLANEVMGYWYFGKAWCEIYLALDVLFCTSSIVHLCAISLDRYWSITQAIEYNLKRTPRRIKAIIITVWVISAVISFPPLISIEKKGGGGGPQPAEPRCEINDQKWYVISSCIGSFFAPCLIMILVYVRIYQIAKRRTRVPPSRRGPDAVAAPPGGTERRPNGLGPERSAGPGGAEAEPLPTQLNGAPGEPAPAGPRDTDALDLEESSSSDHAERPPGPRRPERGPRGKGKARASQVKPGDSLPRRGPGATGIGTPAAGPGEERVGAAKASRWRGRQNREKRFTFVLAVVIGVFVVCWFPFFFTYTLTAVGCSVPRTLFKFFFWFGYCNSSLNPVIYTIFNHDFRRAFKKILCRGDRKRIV
Procedure, shortened: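 Membranes from recombinant cells expressing the receptor, in 50 mM Tris-HCl pH 7.4 with 5 mM MgCl2, 1 mM CaCl2, 0.2% BSA; compounds incubated with 2 nM [^3H]MK-912 for 60 min at 25° C. Nonspecific binding defined by 10 μM rauwolscine; filtration, counting; percent inhibition of specific binding, or estimated Ki.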

| SMILES | Percentage inhibition of ligand binding, Adrenergic α2B (10 nM) ([1]; 0.01 µM) [%] | inhibition at 0.03 µM [1] [%] | inhibition at 0.1 µM [2] [%] | Percentage inhibition of ligand binding, Adrenergic α1B (0.3 μM) [2] [%] | Percentage inhibition of ligand binding, Adrenergic α2A (0.1 μM) [3] [%] | inhibition at 0.3 µM [3] [%] | Percentage inhibition of ligand binding, Adrenergic α2B (30 nM) [1] [%] | Percentage inhibition of ligand binding, Adrenergic α1B (0.1 μM) [2] [%] | Percentage inhibition of ligand binding, Adrenergic α2B (0.1 μM) [1] [%] | Percentage inhibition of ligand binding, Adrenergic α2A (0.3 μM) [3] [%] | Percentage inhibition of ligand binding, Adrenergic α2B (10 nM) [1] [%] | inhibition at 0.1 µM [1] [%] | inhibition at 0.3 µM [2] [%] | inhibition at 0.01 µM [1] [%] | inhibition at 0.1 µM [3] [%] |
| --- | --- | --- | --- | --- | --- | --- | --- | --- | --- | --- | --- | --- | --- | --- | --- |
| Cc1cc2c3c(n(CC(C)(O)c4ccncc4)c2cc1Cl)CCN1CCCC31 (single isomer, unassigned) [50d] | −8 | – | – | 4 | −9 | – | −2 | −8 | 13 | −4 | – | – | – | – | – |
| CC(O)(Cn1c2c(c3cc(Cl)cc(F)c31)C1CCCN1CC2)c1ccncc1 (single isomer, unassigned) [52c] | – | – | – | 0 | 7 | – | 11 | −6 | 10 | 12 | 9 | – | – | – | – |
| Cc1cc(F)c2c(c1)c1c(n2CC(C)(O)c2ccncc2)CCN2CCCC12 (single isomer, unassigned) [81c] | −2 | – | – | – | 3 | 8 | 0 | 2 | – | – | – | 17 | 11 | – | – |
| CC(O)(Cn1c2c(c3cc(F)ccc31)C1CCCN1CC2)c1cccnc1 (stereo not drawn) [57b] | −7 | – | – | −7 | −6 | – | −4 | −10 | 8 | −7 | – | – | – | – | – |
| Cc1ccc2c(c1)c1c(n2CC(C)(O)c2ccncc2)CCN2CCCC12 (single isomer, unassigned) [13c] | −1 | 30 | – | 28 | 11 | 21 | – | 9 | – | – | – | 74 | – | – | – |
| Cc1ccc2c(c1)c1c(n2CC(OCC2CCC2)c2ccncc2)CCN(C)C1 (stereo not drawn) [59b] | – | 97 | 28 | – | – | 65 | – | – | – | – | – | 99 | 62 | 84 | 39 |
| Cc1ccc2c(c1)c1c(n2CC(C)(O)c2ccc(F)cc2)CC2CCC1N2C (single isomer, unassigned) [102c] | −14 | – | – | 5 | −12 | – | −5 | −4 | −8 | −5 | – | – | – | – | – |
| Cc1cc(C)c2c(c1)c1c(n2CC(C)(O)c2cccnc2)CCN2CCCC12 (single isomer, unassigned) [44d] | −17 | – | – | 0 | −17 | – | −11 | −5 | – | −16 | – | – | – | – | – |
| CC(O)(Cn1c2c(c3cc(Cl)cc(F)c31)C1CCCN1CC2)c1cccnc1 (single isomer, unassigned) [53d] | −3 | – | – | −8 | 0 | – | −4 | −16 | −5 | 5 | – | – | – | – | – |

The next lines start with the values.

| Percentage inhibition of ligand binding, Adrenergic α2B (10 nM) ([1]; 0.01 µM) [%] | inhibition at 0.03 µM [1] [%] | inhibition at 0.1 µM [2] [%] | Percentage inhibition of ligand binding, Adrenergic α1B (0.3 μM) [2] [%] | Percentage inhibition of ligand binding, Adrenergic α2A (0.1 μM) [3] [%] | inhibition at 0.3 µM [3] [%] | Percentage inhibition of ligand binding, Adrenergic α2B (30 nM) [1] [%] | Percentage inhibition of ligand binding, Adrenergic α1B (0.1 μM) [2] [%] | Percentage inhibition of ligand binding, Adrenergic α2B (0.1 μM) [1] [%] | Percentage inhibition of ligand binding, Adrenergic α2A (0.3 μM) [3] [%] | Percentage inhibition of ligand binding, Adrenergic α2B (10 nM) [1] [%] | inhibition at 0.1 µM [1] [%] | inhibition at 0.3 µM [2] [%] | inhibition at 0.01 µM [1] [%] | inhibition at 0.1 µM [3] [%] | SMILES |
| --- | --- | --- | --- | --- | --- | --- | --- | --- | --- | --- | --- | --- | --- | --- | --- |
| −2 | 23 | 2 | 30 | −4 | 11 | – | – | – | – | – | – | – | – | – | CC(O)(Cn1c2c(c3cc(Cl)cc(F)c31)CN1CCCC1C2)c1ccncc1 (single isomer, unassigned) [86a] |
| – | – | – | – | 4 | – | 8 | 8 | – | – | – | – | – | – | – | Cc1ccc2c(c1)c1c(n2CC(C)(O)c2ccc(F)cc2)CN2CCC1C2 (single isomer, unassigned) [134c] |
| – | – | 12 | – | – | – | 10 | – | – | 2 | – | – | 14 | 14 | 10 | Cc1cc(F)c2c(c1)c1c(n2CC(O)c2ccncc2)CCN2CCCC12 (single isomer, unassigned) [137c] |
| – | – | – | – | 1 | – | 5 | 9 | – | – | – | – | – | – | – | OC(Cn1c2c(c3cc(Cl)ccc31)C1CCCN1CC2)c1ccncc1 (single isomer, unassigned) [143c] |
| 13 | – | – | 13 | 7 | – | 28 | 3 | – | 11 | – | – | – | – | – | CC(O)(Cn1c2c(c3cc(Cl)cc(F)c31)CN1CCCC1C2)c1ccncc1 (single isomer, unassigned) [86d] |
| – | – | – | – | 1 | – | −12 | −2 | – | – | – | – | – | – | – | OC(Cn1c2c(c3cc(F)cc(F)c31)C1CCCN1CC2)c1ccncc1 (single isomer, unassigned) [144c] |
| – | 65 | 3 | – | – | 50 | – | – | – | – | – | 83 | 32 | 50 | 33 | Cc1ccc2c(c1)c1c(n2CC(C)(O)c2ccc(N)nc2)CCN(C)C1 (stereo not drawn) [compound 47, 2-(6-aminopyridin-3-yl)-1-(2,8-dimethyl-3,4-dihydro-1H-pyrido[4,3-b]indol-5(2H)-yl)propan-2-ol] |
